# According to PMC8327781 (Journal of medicinal chemistry, 2021):
# Where two headings read alike, the source gives them in different places.
# Biological target: JAK2 KD (Homo sapiens, UniProt O60674)
# Test: Recombinant JAK2 KD protein levels in transfected Expi293F cells
# Type: cell-based
# Sequence of JAK2 KD (O60674 840-1132): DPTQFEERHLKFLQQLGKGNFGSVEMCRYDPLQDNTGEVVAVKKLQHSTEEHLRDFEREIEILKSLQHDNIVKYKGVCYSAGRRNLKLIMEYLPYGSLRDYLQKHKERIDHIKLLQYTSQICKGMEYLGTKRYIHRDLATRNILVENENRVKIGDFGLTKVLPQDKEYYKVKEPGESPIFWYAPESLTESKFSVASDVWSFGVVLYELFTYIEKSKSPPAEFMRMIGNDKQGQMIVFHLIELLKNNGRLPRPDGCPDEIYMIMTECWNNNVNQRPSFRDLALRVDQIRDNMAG
JAK2 KD expression increase over that of ruxolitinib alone,"JAK2 KD expression increase over that of ruxolitinib alone (HDAC inhibitor added alongside 1 μM ruxolitinib, 2 mM and 4 mM)",SMILES
four-fold,–,CCCC(=O)O [butyric acid]
–,four-fold,CCCC(CCC)C(=O)O [valproic acid]
